Reference: patent US20230069963A1, “PYRAZOLO[1,5-A]PYRIMIDINE MACROCYCLIC COMPOUND” (priority 2018, published 2023)
Counter-ions that a name gives are not always drawn.

Test system: RSV ATCC VR-1540 (A2)
Test: microbe, parasite or virus in culture
Format: cell-based
Details: human respiratory syncytial virus, HEp-2, 96 h; Hep2 cells, incubated for 4 days, CPE detected with XTT assay (absorbance 450 nm); read-out: EC50 (nmol/L) against RSV A2 strain

Question: Which EC50 does the source give for `CN1CCNCCOc2ccc(F)cc2C(=O)N2CCCC[C@H]2c2cc3nc(N4CCC4)c(F)c1n3n2` [Example 198, (18aS)-13-(azetidin-1-yl)-2,12-difluoro-11-methyl-6,7,8,9,10,11,19,20,21,22-decahydro-18aH,24H-18,15-(metheno)pyrido[2,1-l]pyrimido[6,1-h][1,4,7,9,10,13]benzoxapentaazacyclohexadecin-24-one] here?
Answer: Its EC50 is 2.82 nmol/L.

Question: Which EC50 does the source give for `CC[C@H]1c2cc3nc(NCC(C)(C)N)cc(n3n2)N(C)CCCCOc2ccc(C)cc2C(=O)N1C` [Example 208, (17S)-3-[(2-amino-2-methylpropyl)amino]-17-ethyl-5,13,16-trimethyl-6,7,8,9,16,17-hexahydro-5H,15H-18,1-(metheno)pyrimido[6,1-g][1,6,8,9,12]benzoxatetraazacyclopentadecin-15-one hydrochloride] here?
Answer: Its EC50 is 4.33 nmol/L.

Question: `CCC1c2cc3nc(N4CC[C@H](N)C4)cc(n3n2)N(C)CCCCOc2ccccc2C(=O)N1C` (stereo partly drawn) [Example 213, (17S)-3-[(3S)-3-aminopyrrolidin-1-yl]-17-ethyl-5,16-dimethyl-6,7,8,9,16,17-hexahydro-5H,15H-18,1-(metheno)pyrimido[6,1-g][1,6,8,9,12]benzoxatetraazacyclopentadecin-S5-one] was tested. Which EC50 did it give?
Answer: The EC50 was 7.81 nmol/L.

Question: `CC[C@H]1c2cc3nc(N4CC[C@H](N)C4)cc(n3n2)N(C)CCCCN(C)c2ccc(C)cc2C(=O)N1C` [Example 218, (17S)-3-[(3S)-3-aminopyrrolidin-1-yl]-17-ethyl-5,10,13,16-tetramethyl-5,6,7,8,9,10,16,17-octahydro-15H-18,1-(metheno)pyrimido[6,1-g][1,6,8,9,12]benzopentaazacyclopentadecin-15-one] was tested. Which EC50 did it give?
Answer: Its EC50 is 9.8 nmol/L.

Question: How did the EC50 turn out when `CC[C@H]1c2cc3nc(OC)c(C)c(n3n2)N(C)CCCCNc2ccc(C)cc2C(=O)N1C` [Example 222a, (17S)-17-ethyl-3-methoxy-4,5,13,16-tetramethyl-5,6,7,8,9,10,16,17-octahydro-15H-18,1-(metheno)pyrimido[6,1-g][1,6,8,9,12]benzopentaazacyclopentadecin-15-one] was run?
Answer: Its EC50 is 7.17 nmol/L.

Question: For `CC[C@H]1c2cc3nc(N4CC[C@H](N)C4)c(C)c(n3n2)N(C)CCCCNc2ccc(C)cc2C(=O)N1C` [Example 223, (17S)-3-[(3S)-3-aminopyrrolidin-1-yl]-17-ethyl-4,5,13,16-tetramethyl-5,6,7,8,9,10,16,17-octahydro-15H-18,1-(metheno)pyrimido[6,1-g][1,6,8,9,12]benzopentaazacyclopentadecin-15-one], which EC50 is on record?
Answer: Its EC50 is 1.34 nmol/L.

Question: With `CC[C@H]1c2cc3nc(N4CC[C@H](N)C4)c(C)c(n3n2)N(C)CCCCCOc2ccccc2C(=O)N1C` [Example 233, (18S)-3-[(3S)-3-aminopyrrolidin-1-yl]-18-ethyl-4,5,17-trimethyl-5,6,7,8,9,10,17,18-octahydro-16H-19,1-(metheno)pyrimido[6,1-h][1,7,9,10,13]benzoxatetraazacyclohexadecin-16-one] as the compound, how does the EC50 read?
Answer: The EC50 was 39.5 nmol/L.

Question: How did the EC50 turn out when `CC[C@H]1c2cc3nc(NCC(C)(C)N)c(C)c(n3n2)N(C)CCCCCOc2ccccc2C(=O)N1C` [Example 234, (18S)-3-[(2-amino-2-methylpropyl)amino]-18-ethyl-4,5,17-trimethyl-5,6,7,8,9,10,17,18-octahydro-16H-19,1-(metheno)pyrimido[6,1-h][1,7,9,10,13]benzoxatetraazacyclohexadecin-16-one] was run?
Answer: The EC50 was 6.77 nmol/L.

Question: For `CC[C@H]1c2cc3nc(N4CC[C@H](N)C4)cc(n3n2)N(C)CCCOc2ccc(C)cc2C(=O)N1C` [Example 238, (16S)-3-[(3S)-3-aminopyrrolidin-1-yl]-16-ethyl-5,12,15-trimethyl-5,6,7,8,15,16-hexahydro-14H-17,1-(metheno)pyrimido[6,1-f][1,5,7,8,11]benzoxatetraazacyclotetradecin-14-one], which EC50 is on record?
Answer: Its EC50 is 28 nmol/L.

Question: For `Cc1ccc2c(c1)C(=O)N1CCCC[C@H]1c1cc3nc(NCCN)cc(n3n1)N(C)CCCCO2` [Example 245, (23aS)-18-[(2-aminoethyl)amino]-8,16-dimethyl-1,3,4,13,14,15,16,23a-octahydro-2H,6H,12H-23,20-(metheno)pyrido[2,1-k]pyrimido[6,1-g][1,6,8,9,12]benzoxatetraazacyclopentadecin-6-one hydrochloride], which EC50 is on record?
Answer: Its EC50 is 4.71 nmol/L.

Question: `CN1CCCCOc2cccc(F)c2C(=O)N2CCCCC2c2cc3nc(N4CCC(N)C4)cc1n3n2` [Example 249, (23aS)-18-[(3S)-3-aminopyrrolidin-1-yl]-7-fluoro-16-methyl-1,3,4,13,14,15,16,23a-octahydro-2H,6H,12H-23,20-(metheno)pyrido[2,1-k]pyrimido[6,1-g][1,6,8,9,12]benzoxatectraazacyclopentadecin-6-one] was tested. Which EC50 did it give?
Answer: Its EC50 is 2.7 nmol/L.

Question: Which EC50 does the source give for `CN1CCCCOc2ccc(Cl)cc2C(=O)N2CCCCC2c2cc3nc(N4CC[C@H](N)C4)cc1n3n2` (stereo partly drawn) [Example 254, (23aS)-18-[(3S)-3-aminopyrrolidin-1-yl]-8-chloro-16-methyl-1,3,4,13,14,15,16,23a-octahydro-2H,6H,12H-23,20-(metheno)pyrido[2,1-k]pyrimido[6,1-g][1,6,8,9,12]benzoxatetraazacyclopentadecin-6-one] here?
Answer: The EC50 was 3.28 nmol/L.

Question: How did the EC50 turn out when `CN1CCCCCc2ccc(F)cc2C(=O)N2CCCC[C@H]2c2cc3nc(N4CCC4)cc1n3n2` [Example 279, (23aS)-18-(azetidin-1-yl)-8-fluoro-16-methyl-1,3,4,11,12,13,14,15,16,23a-decahydro-2H,6H-23,20-(metheno)pyrido[1,2-b]pyrimido[1,6-f][2,5,6,8]benzotetraazacyclopentadecin-6-one] was run?
Answer: Its EC50 is 14.5 nmol/L.

Question: With `Cc1c(N2CCC(N)C2)nc2cc3nn2c1NCCCCOc1ccc(Cl)cc1C(=O)N1CCCCC31` [Example 283, (23aS)-18-[(3S)-3-aminopyrrolidin-1-yl]-8-chloro-17-methyl-1,3,4,13,14,15,16,23a-octahydro-2H,6H,12H-23,20-(metheno)pyrido[2,1-k]pyrimido[6,1-g][1,6,8,9,12]benzoxatetraazacyclopentadecin-6-one] as the compound, how does the EC50 read?
Answer: Its EC50 is 6.28 nmol/L.

Question: For `Cc1c(N2CCC2)nc2cc3nn2c1NCCCCOc1ccc(Cl)cc1C(=O)N1CCCC[C@@H]31` [Example 284, (23aS)-18-(azetidin-1-yl)-8-chloro-17-methyl-1,3,4,13,14,15,16,23a-octahydro-2H,6H,12H-23,20-(metheno)pyrido[2,1-k]pyrimido[6,1-g][1,6,8,9,12]benzoxatetraazacyclopentadecin-6-one], which EC50 is on record?
Answer: The EC50 was 22.2 nmol/L.

Question: Which EC50 does the source give for `Cc1c(NCCN)nc2cc3nn2c1NCCCCOc1ccc(Cl)cc1C(=O)N1CCCC[C@@H]31` [Example 285, (23aS)-18-[(2-aminoethyl)amino]-8-chloro-17-methyl-1,3,4,13,14,15,16,23a-octahydro-2H,6 H,12H-23,20-(metheno)pyrido[2,1-k]pyrimido[6,1-g][1,6,8,9,12]benzoxatetraazacyclopentadecin-6-one hydrochloride] here?
Answer: Its EC50 is 11.9 nmol/L.

Question: For `Cc1c(N2CCC(N)C2)nc2cc3nn2c1N(C)CCCCOc1ccc(Cl)cc1C(=O)N1CCCCC31` [Example 286, (23aS)-18-[(3S)-3-aminopyrrolidin-1-yl]-8-chloro-16,17-dimethyl-1,3,4,13,14,15,16,23a-octahydro-2H,6H,12H-23,20-(metheno)pyrido[2,1-k]pyrimido[6,1-g][1,6,8,9,12]benzoxatetraazacyclopentadecin-6-one], which EC50 is on record?
Answer: Its EC50 is 20.8 nmol/L.

Question: Which EC50 does the source give for `CN1CCOCCOc2ccc(Cl)cc2C(=O)N2CCCCC2c2cc3nc(N4CCC(N)C4)cc1n3n2` [Example 297, (18aS)-13-[(3S)-3-aminopyrrolidin-1-yl]-2-chloro-11-methyl-6,7,10,11,19,20,21,22-octahydro-9H,18aH,24H-18,15-(metheno)pyrido[2,1-l]pyrimido[6,1-h][1,4,7,9,10,13]benzodioxatetraazacyclohexadecin-24-one] here?
Answer: The EC50 was 8.74 nmol/L.

Question: Which EC50 does the source give for `Cc1c(N2CCC(N)C2)nc2cc3nn2c1NCCOCCOc1ccc(Cl)cc1C(=O)N1CCCCC31` [Example 299, (18aS)-13-[(3S)-3-aminopyrrolidin-1-yl]-2-chloro-12-methyl-6,7,10,11,19,20,21,22-octahydro-9H,18aH,24H-18,15-(metheno)pyrido[2,1-l]pyrimido[6,1-h][1,4,7,9,10,13]benzodioxatetraazacyclohexadecin-24-one] here?
Answer: Its EC50 is 9.69 nmol/L.

Question: Which EC50 does the source give for `CCc1ccc2c(c1)C(=O)N(C)[C@@H](CC)c1cc3nc(N4CC[C@H](N)C4)cc(n3n1)N(C)CCCS(=O)(=O)N2` [Example 303, (17S)-3-[(3S)-3-aminopyrrolidin-1-yl]-13,17-diethyl-5,16-dimethyl-7,8,16,17-tetrahydro-5H-18,1-(metheno)-9λ^6-pyrimido[6,1-g][2,1,6,8,9,12]benzothiapentaazacyclopentadecine-9,9,15 (6H,10H)-trione] here?
Answer: The EC50 was 10.5 nmol/L.

Question: How did the EC50 turn out when `CCN1CCCS(=O)(=O)Nc2ccc(F)cc2C(=O)N2CCCC[C@H]2c2cc3nc(N4CCC4)cc1n3n2` [Example 318, (23aS)-18-(azetidin-1-yl)-16-ethyl-8-fluoro-1,3,4,13,14,15,16,23a-octahydro-2H,6H-23,20-(metheno)-12λ^6-pyrido[2,1-k]pyrimido[6,1-g][2,1,6,8,9,12]benzothiapentaazacyclopentadecine-6,12,12(11H)-trione] was run?
Answer: The EC50 was 22.7 nmol/L.

Question: How did the EC50 turn out when `Cc1c(NCCN)nc2cc3nn2c1N(C)CCCS(=O)(=O)Nc1ccc(Cl)cc1C(=O)N1CCCC[C@@H]31` [Example 327, (23aS)-18-[(2-aminoethyl)amino]-8-chloro-16,17-dimethyl-1,3,4,13,14,15,16,23a-octahydro-2H,6H-23,20-(metheno)-12λ^6-pyrido[2,1-k]pyrimido[6,1-g][2,1,6,8,9,12]benzothiapentaazacyclopentadecine-6,12,12(11H)-trione] was run?
Answer: The EC50 was 1.72 nmol/L.

Question: Which EC50 does the source give for `Cc1nnc2n1CCN(C)c1cc(N3CC(N)C3)nc3cc(nn13)[C@@H]1CCCCN1C(=O)c1cc(Cl)ccc1OC2` [Example 328, (20aS)-15-(3-aminoazetidin-1-yl)-2-chloro-9,13-dimethyl-12,13,21,22,23,24-hexahydro-6H, 11H,20aH,26H-20,17-(metheno)pyrido[2,1-l]pyrimido[6,1-h][1,2,4]triazolo[3,4-c][1,4,7,9,10,13]benzoxapentaazacyclohexadecin-26-one] here?
Answer: The EC50 was 9.48 nmol/L.
